Source: ChEMBL document CHEMBL3879897, “1,4-dithiin and 1,4-dithiepin-1,1,4,4, tetroxide derivatives useful as antagonists of the human galanin receptor” (2002)

How the values were obtained:
Assay type in all cases: subcellular
[1] = target: T1, Galanin receptor type 1 (Rattus norvegicus) (UniProt Q62805); test: (§1) Antagonist activity at galanin -1 receptor in rat brain synaptosomes assessed as galanin-mediated suppression of basal [3H]-acetylcholine secretion at 10 uM measured 10 mins post 30 sces superfusing with K+-Krebs-ringer solution by liquid scintillation spectrometric method (reference value: […]%)
T1 sequence (whole entry): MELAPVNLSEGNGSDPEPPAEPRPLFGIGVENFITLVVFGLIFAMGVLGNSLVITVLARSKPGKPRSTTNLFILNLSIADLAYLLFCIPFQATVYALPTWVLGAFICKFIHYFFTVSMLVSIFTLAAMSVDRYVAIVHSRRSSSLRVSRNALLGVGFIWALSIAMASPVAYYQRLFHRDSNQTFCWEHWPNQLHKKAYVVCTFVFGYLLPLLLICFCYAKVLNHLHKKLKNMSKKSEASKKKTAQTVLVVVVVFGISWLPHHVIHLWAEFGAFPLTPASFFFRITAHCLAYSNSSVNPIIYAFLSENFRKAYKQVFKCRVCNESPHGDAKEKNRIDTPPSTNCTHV

[2] = target: T1, Galanin receptor type 1 (Rattus norvegicus); test: (§2) Antagonist activity at galanin -1 receptor in rat brain synaptosomes assessed as galanin-mediated suppression of basal [3H]-acetylcholine secretion at 1 uM measured 10 mins post 30 sces superfusing with K+-Krebs-ringer solution by liquid scintillation spectrometric method (reference value: […]%)
[3] = target: T1, Galanin receptor type 1 (Rattus norvegicus); test: as §2, with “K+-Krebs-ringer solution-induced” for “basal”
[4] = target: T1, Galanin receptor type 1 (Rattus norvegicus); test: as §1, with “K+-Krebs-ringer solution-induced” for “basal”

| inhibition [1] | inhibition [2] | inhibition [3] | inhibition [4] | SMILES |
| --- | --- | --- | --- | --- |
| 37% | 39.2% | 35.2% | 22.3% | O=S1(=O)C=C(c2ccc(I)cc2)S(=O)(=O)CCC1 |
| 37% | 38.9% | 23.9% | – | O=S1(=O)C=C(c2cccc(F)c2)S(=O)(=O)CCC1 |
